Test results reported in ChEMBL document CHEMBL1136378, “Novel 6,7-diphenyl-2,3,8,8a-tetrahydro-1H-indolizin-5-one analogues as cytotoxic agents” (Bioorg Med Chem Lett, 2003).

How the values were obtained:
U-251 = experiment: In vitro cytotoxic activity tested against human CNS (U251) cell line; format: functional
SW-620 = experiment: In vitro cytotoxic activity tested against human colon cancer (SW620) cell line; format: functional
SK-OV-3 = experiment: In vitro cytotoxic activity tested against human ovarian cancer (SK-OV3) cell line; format: functional
DU-145 = experiment: In vitro cytotoxic activity tested against human prostate cancer (DU145) cell line; format: functional
[1] = Average growth inhibition against cell lines was calculated; format: functional
NCI-H522 = experiment: In vitro cytotoxic activity tested against human lung cancer (H-522) cell line
NCI/ADR-RES = experiment: In vitro cytotoxic activity tested against human breast cancer MCF/ADR cell line
M14 = experiment: In vitro cytotoxic activity was tested against human melanoma cancer (M14) cell line; format: functional
A498 = experiment: In vitro cytotoxic activity was tested against human renal cancer (A498) cell line; format: functional
[2] = Tmax value was determined at a dose of 200 mg/kg (i.p.) in Mice; format: ADME, organism-based; parameters: dose 200 mg/kg, route intraperitoneal; details: mouse, in vivo, ip
[3] = Cmax value was determined at a dose of 200 mg/kg (i.p.) in Mice; format: ADME, organism-based; parameters: dose 200 mg/kg, route intraperitoneal; details: mouse, in vivo, ip
[4] = Area under curve was determined at a dose of 200 mg/kg (i.p.) in Mice; format: ADME, organism-based; parameters: dose 200 mg/kg, route intraperitoneal; details: mouse, in vivo, ip
[5] = Half life beta(2,4,6,8h) value was determined at a dose of 200 mg/kg (i.p.) in Mice; format: ADME, organism-based; parameters: dose 200 mg/kg, route intraperitoneal; details: mouse, in vivo, ip, read-out: T1/2 beta (converted)

SMILES | GI50 (U-251) [µM] | GI50 (SW-620) [µM] | GI50 (SK-OV-3) [µM] | GI50 (DU-145) [µM] | GI50 [1] [µM] | GI50 (NCI-H522) [µM] | GI50 (NCI/ADR-RES) [µM] | GI50 (M14) [µM] | GI50 (A498) [µM] | Tmax [2] [h] | Cmax [3] [nM] | AUC [4] [µM·h] | half-life [5] [h]
CSc1ccc(C2=C(c3ccc(O)c(O)c3)C(=O)N3CCCC3C2)cc1 (stereo not given) | 30 | 50 | 80 | 60 | 60 | 60 | 80 | – | – | – | – | – | –
CSc1ccc(C2=C(c3ccc(OCCN4CCOCC4)cc3)C(=O)N3CCCC3C2)cc1 (stereo not given) | 9 | 9 | 9 | 20 | 11.5 | 7 | 9 | 20 | 9 | – | – | – | –
CSc1ccc(C2=C(c3ccc(F)cc3)C(=O)N3CCCC3C2)cc1 (stereo not given) | 0.09 | 0.5 | 30 | 0.5 | 4.1 | 0.25 | 0.8 | 0.6 | 0.1 | 1.5 | 990 | 3.88 | 2.59
COc1ccc(C2=C(c3ccc(SC)cc3)CC3CCCN3C2=O)cc1OC (stereo not given) | 0.3 | 3 | 9 | 1.5 | 3.6 | 2 | 0.6 | 5 | 8 | 0.25 | 23000 | 102 | 7.29
COc1ccc(C2=C(c3ccc(SC)cc3)CC3CCCN3C2=O)cc1Br (stereo not given) | 0.8 | 5 | 3 | 0.9 | 2.5 | 0.7 | 6 | 3 | 0.6 | – | – | – | –
CSc1ccc(C2=C(c3ccc(OCC4CO4)cc3)C(=O)N3CCCC3C2)cc1 (stereo not given) | 0.08 | 0.09 | 10 | 0.5 | 2.6 | 0.03 | 10 | 0.09 | 0.5 | – | – | – | –
COc1ccc(C2=C(c3ccc(SC)cc3)CC3CCCN3C2=O)cc1 (stereo not given) | 2 | 3 | 3 | 0.9 | 2.4 | 0.8 | 5 | 4 | 0.8 | – | – | – | –
COc1ccc(C2=C(c3ccc(SC)cc3)CC3CCCN3C2=O)cc1O (stereo not given) | 5 | 20 | > 100 | 6 | 23.6 | 6 | 5 | – | – | – | – | – | –
COc1ccc(C2=C(c3cc(OC)c(OC)c(OC)c3)CC3CCCN3C2=O)cc1O (stereo not given) | > 100 | > 100 | > 100 | > 100 | > 100 | > 100 | > 100 | > 100 | > 100 | – | – | – | –
COc1ccc(C2=C(c3ccc(SC)cc3)CC3CCCN3C2=O)cc1OC(=O)C1CCCN1C(=O)OC(C)(C)C (stereo not given) | 2 | 10 | 10 | 5 | 6 | 5 | 4 | – | – | – | – | – | –
CSc1ccc(C2=C(c3ccc(Br)cc3)C(=O)N3CCCC3C2)cc1 (stereo not given) | 7 | 7 | 9 | 9 | 7.8 | 7 | 8 | 9 | 7 | – | – | – | –
COc1ccc(C2=C(c3ccc(SC)cc3)CC3CCCN3C2)cc1O (stereo not given) | > 100 | > 100 | > 100 | > 100 | > 100 | > 100 | > 100 | > 100 | > 100 | – | – | – | –
CSc1ccc(C2=C(c3ccc(F)c(C)c3)C(=O)N3CCCC3C2)cc1 (stereo not given) | 0.2 | 0.6 | 0.3 | 0.5 | 1.1 | 0.5 | 0.5 | 0.8 | 0.3 | – | – | – | –
COc1ccc(C2=C(c3ccc(SC)cc3)CC3CCCN3C2=O)cc1C (stereo not given) | 0.09 | 0.5 | 15 | 0.9 | 2.1 | 0.1 | 0.4 | 0.2 | 0.4 | – | – | – | –
CSc1ccc(C2=C(c3ccc(C)c(C)c3)C(=O)N3CCCC3C2)cc1 (stereo not given) | 10 | 0.7 | 0.3 | 0.5 | 1.7 | 0.3 | 0.8 | 0.8 | 0.3 | – | – | – | –
COc1ccc(/C=C\c2cc(OC)c(OC)c(OC)c2)cc1O [COMBRETASTATIN A4] | 0.006 | 0.005 | < 0.0001 | – | 0.103 | 0.007 | 0.09 | 0.0001 | 0.61 | – | – | – | –
COc1ccc(C2=C(c3ccc(OC)c(OC)c3)CN3CCCC3C2)cc1OC (stereo not given) | > 100 | > 100 | > 100 | > 100 | > 100 | > 100 | > 100 | > 100 | > 100 | – | – | – | –
COc1cc(C2=C(c3ccc(SC)cc3)CC3CCCN3C2=O)ccc1O (stereo not given) | 8 | 9 | 8 | 8 | 7.75 | 7 | 8 | 9 | 5 | – | – | – | –
COc1ccc(C2=C(c3ccc(SC)cc3)CC3CCCN3C2=O)cc1OC(=O)CNC(=O)OC(C)(C)C (stereo not given) | 6 | 20 | 20 | 10 | 11.5 | 7 | 6 | – | – | – | – | – | –
COc1ccc(C2=C(c3ccc(OC)c(OC)c3)C(=O)N3CCCC3C2)cc1OC (stereo not given) | > 100 | > 100 | > 100 | > 100 | > 100 | > 100 | > 100 | > 100 | > 100 | – | – | – | –
CSc1ccc(C2=C(c3ccc(O)cc3)C(=O)N3CCCC3C2)cc1 (stereo not given) | > 100 | > 100 | > 100 | > 100 | > 100 | > 100 | > 100 | > 100 | > 100 | – | – | – | –
CSc1ccc(C2=C(c3ccc(SC)cc3)C(=O)N3CCCC3C2)cc1 (stereo not given) | 5 | 7 | 2 | 8 | 8.1 | 15 | 8 | 5 | 15 | 1 | 860 | 2.5 | –
